Tests used:
Type in all cases: physicochemical
[1] = In vitro release of AMP from PEG2000-containing PU rods; conditions: pH 4.2 acetate buffer; for release profile: 37° C.
Experimental: Incorporation of AMP in PU matrix: Homogenous distribution of AMP and PEG2000 in the PU matrix was achieved by solvent casting. AMP (500 mg), PEG2000 (500 mg (5% w/w), 1000 mg (10% w/w) and 1500 mg (15% w/w)) and PU (added to make the total weight of PEG+AMP+PU mixture to 10 g) were dissolved in 75:25 mixture of dichloromethane and tetrahydrofuran. About 75% of the solvent was removed under reduced pressure and the viscous solution of PU, AMP and PEG2000 was poured into a silanized crystallization flask which was further dried under air at a flow rate of 4 L/min for 2-3 days. The […] incorporated PU films thus obtained were cut into small pieces and further dried under high vacuum until constant weight was achieved.
Extrusion of PEG2000 and AMP loaded solid cross-sectional PU: Extrusion was conducted at 165-175° C. into solid cross-sectional rods using a lab scale extruder (CSI Max Mixing Extruder CS-194A, Custom Scientific Instrument Inc., Easton, Pa.). The extruded and molten polymer output from the extruder was immediately fed to an aluminum mold (4.3 mm diameter, 25 cm length, previously spray coated with mold release agent) maintained at 120° C. The mold was cooled to below 80° C. and opened carefully without stretching the PU rod. The release profile of AMP was measured from PU rods using pH 4.2 25 mM acetate buffer (osmolarity adjusted to 310 mOsm/kg using NaCl, 0.02% sodium azide) at 37° C. and 60 rpm. About 2 cm length segments were cut from the solid cross-sectional AMP loaded PU rods. The dimensions (length and diameter) and weight of each segment were recorded. The sink was replaced with fresh buffer every 24±0.5 h for 10 days. HPLC analyses were performed and the cumulative release was calculated by integrating the area under the curve using Kaleidagraph software (Synergy Software, Reading, Pa.). The release study for each loading was performed on triplicate samples. […] A burst release is obtained in all PEG-PU compositions that is proportional to the PEG concentration.

[2] = Release of Tenofovir from Tecoflex EG-80A and EG-85A small rings with and without PEG2000; conditions: Tecoflex EG-80A and EG-85A matrices, 50 mg/g, 5% w/w PEG, pH 4.2 acetate buffer, 15 days
Experimental: Incorporation of Tenofovir and PEG2000 in Tecoflex EG-80A and EG-85A matrices: Homogenous distribution of Tenofovir and PEG2000 in Tecoflex EG-80A or EG-85A_matrices were achieved by solvent casting. Tenofovir (500 mg) with or without PEG2000 (500 mg) were dissolved in 75:25 mixture of dichloromethane and tetrahydrofuran. About 75% of the solvent was removed under reduced pressure and the viscous solution was poured into a silanized crystallization flask which was further dried under air at a flow rate of 4 L/min for 2-3 days. The Tenofovir incorporated polymer films thus obtained were cut into small pieces and further dried under high vacuum until constant weight was achieved.
Solid cross-sectional rods were obtained by extrusion of polymer films obtained in the above step at 155-165° C. using a lab scale extruder (CSI Max Mixing Extruder CS-194A, Custom Scientific Instrument Inc., Easton, Pa.). Small rings were fabricated by joining the ends of rods of approximately 6 cm in length. The release profile of Tenofovir was measured from Tenofovir loaded small rings using pH 4.2 25 mM acetate buffer (osmolarity adjusted to 310 mOsm/kg using NaCl, 0.02% sodium azide) at 37° C. and 60 rpm. […] HPLC analyses were performed and the cumulative release was calculated by integrating the area under the curve using Kaleidagraph software (Synergy Software, Reading, Pa.). […]

[3] = Release of Tenofovir from Tecoflex EG-93A matrices with PEG2000 with and without salts; conditions: 5% w/w PEG
Experimental: Incorporation of Tenofovir and PEG2000 and salts in EG-93A matrices: Homogenous distribution of Tenofovir, PEG2000 with and without salts in Tecoflex EG-93A_matrices were achieved by solvent casting. Tenofovir (250 mg), PEG2000 (250 mg (5% w/w)) and salts (NaCl=50 mg (1% w/w) or 125 mg (2.5% w/w) or CaCl2=125 mg (2.5% w/w)) were dispersed in 75:25 mixture of dichloromethane and tetrahydrofuran followed by sonication for 30 minutes. About 75% of the solvent was removed under reduced pressure and the viscous solution was poured into a silanized crystallization flask which was further dried under air at a flow rate of 4 L/min for 2-3 days. The Tenofovir incorporated polymer films thus obtained were cut into small pieces and further dried under high vacuum until constant weight was achieved. About 1.2 g of the polymer film pieces were taken in a 20 mL scintillation vial which was incubated at 210° C. for about 5-6 minutes to allow the polymer pieces to melt and fuse to form a continuous film in the bottom of the vial. Then 5 mL of sink (25 mM pH 4.2 buffer, osmolarity adjusted to 310 mOsm/kg with NaCl, and 0.02% sodium azide) was added. The sink was replaced with fresh buffer every 24±0.5 h for 15 days. HPLC analyses were performed and the cumulative release was calculated by integrating the area under the curve using Kaleidagraph software (Synergy Software, Reading, Pa.). […]

release profile ([1]; 5% w/w PEG in PU)	release profile ([1]; 10% w/w PEG in PU)	release profile ([1]; 15% w/w PEG in PU)	release profile ([3]; 2.5 w/w CaCl2)	release profile ([3]; 2.5 w/w NaCl)	Compound	effect of PEG incorporation on release ([1]; PEG-PU rods vs PU)	effect of PEG incorporation on release [2]
zero order	diffusion limited	diffusion limited			Nc1ncnc2c1ncn2[C@@H]1O[C@H](COP(=O)(O)O)[C@@H](O)[C@H]1O [AMP, Adenosine Monophosphate]	increases the overall amount of drug released per day	
			nearly zero-order release	nearly zero-order release	C[C@H](Cn1cnc2c(N)ncnc21)OCP(=O)(O)O [Tenofovir, ({[(2R)-1-(6-amino-9H-purin-9-yl)propan-2-yl]oxy}methyl)phosphonic acid]		increases the overall amount of drug released per day

— patent US20110045076A1, “LINEAR ORDER RELEASE POLYMER” (priority 2008, published 2011)
